Experiments:
Assay in all cases: relative viability (nuclei count vs DMSO), 5 days (fraction); higher = more cells survive
Wnt-C59 + Alpelisib = compound: CC1=NC=CC(=C1)C2=CC=C(C=C2)CC(=O)NC3=CC=C(C=C3)C4=CN=CC=C4 [Wnt-C59] + Cc1nc(NC(=O)N2CCC[C@H]2C(N)=O)sc1-c1ccnc(C(C)(C)C(F)(F)F)c1 [Alpelisib] (partner 2 µM)
Summary of the method: (§1)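 A single step with final 0.05% Triton X-100, 1% formaldehyde and 1 ug/ml Hoechst fixed the cells and stained nuclei 5 days after treatment. Lung cancer cell lines in 1536-well plates had been treated by pin tool the day after seeding with one drug alone or a fixed anchor-drug dose plus five library-drug doses (not always all listed) in √10 steps, and nuclei were counted on 4× images. Relative viability is the ratio of nuclei in treated wells to nuclei in vehicle wells, taken as the median of duplicate plates.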

Lapatinib + Trametinib = compound: CS(=O)(=O)CCNCc1ccc(-c2ccc3ncnc(Nc4ccc(OCc5cccc(F)c5)c(Cl)c4)c3c2)o1 [Lapatinib] + CC(=O)Nc1cccc(-n2c(=O)n(C3CC3)c(=O)c3c(Nc4ccc(I)cc4F)n(C)c(=O)c(C)c32)c1 [Trametinib] (partner 0.02 µM)
Summary of the method: as §1

Lapatinib + Bortezomib = compound: CS(=O)(=O)CCNCc1ccc(-c2ccc3ncnc(Nc4ccc(OCc5cccc(F)c5)c(Cl)c4)c3c2)o1 [Lapatinib] + CC(C)C[C@H](NC(=O)[C@H](Cc1ccccc1)NC(=O)c1cnccn1)B(O)O [Bortezomib] (partner 0.002 µM)
Summary of the method: as §1

Lapatinib + Luminespib = compound: CS(=O)(=O)CCNCc1ccc(-c2ccc3ncnc(Nc4ccc(OCc5cccc(F)c5)c(Cl)c4)c3c2)o1 [Lapatinib] + CCNC(=O)c1noc(-c2cc(C(C)C)c(O)cc2O)c1-c1ccc(CN2CCOCC2)cc1 [Luminespib] (partner 0.01 µM)
Summary of the method: as §1

| Cell Line | relative viability (Wnt-C59 + Alpelisib; first compound 0.001 µM) | relative viability (Wnt-C59 + Alpelisib; first compound 0.01 µM) | relative viability (Wnt-C59 + Alpelisib; first compound 0.03162 µM) | relative viability (Wnt-C59 + Alpelisib; first compound 0.1 µM) | relative viability (Lapatinib + Trametinib; first compound 0.02 µM) | relative viability (Lapatinib + Trametinib; first compound 0.06325 µM) | relative viability (Lapatinib + Trametinib; first compound 0.2 µM) | relative viability (Lapatinib + Trametinib; first compound 0.6325 µM) | relative viability (Lapatinib + Trametinib; first compound 2 µM) | relative viability (Lapatinib + Bortezomib; first compound 0.02 µM) | relative viability (Lapatinib + Bortezomib; first compound 0.06325 µM) | relative viability (Lapatinib + Bortezomib; first compound 0.2 µM) | relative viability (Lapatinib + Bortezomib; first compound 0.6325 µM) | relative viability (Lapatinib + Bortezomib; first compound 2 µM) | relative viability (Lapatinib + Luminespib; first compound 0.02 µM) | relative viability (Lapatinib + Luminespib; first compound 0.06325 µM) | relative viability (Lapatinib + Luminespib; first compound 0.2 µM) | relative viability (Lapatinib + Luminespib; first compound 0.6325 µM) | relative viability (Lapatinib + Luminespib; first compound 2 µM) |
| --- | --- | --- | --- | --- | --- | --- | --- | --- | --- | --- | --- | --- | --- | --- | --- | --- | --- | --- | --- |
| RERF-LC-KJ | 0.743 | 0.764 | 0.853 | 0.883 | 0.854 | 0.903 | 0.758 | 0.792 | 0.642 | 0.911 | 0.948 | 1.02 | 0.983 | 0.766 | 1.13 | 1.25 | 1.16 | 1.2 | 0.797 |
| EMC-BAC-2 | 0.684 | 0.607 | 0.672 | 0.65 | – | 0.526 | – | 0.83 | 0.789 | 0.871 | 0.999 | 1.07 | 0.991 | 0.87 | 1.09 | 0.998 | 1.19 | 1.06 | 1.08 |
| NCI-H522 | – | – | – | – | – | 0.636 | 0.688 | 0.809 | 0.655 | – | – | – | – | – | – | 1.09 | – | 1.03 | 0.794 |
| NCI-H1651 | 1.04 | 0.956 | 0.934 | 0.815 | 0.856 | 0.809 | 0.827 | 0.806 | 0.811 | 0.994 | 0.93 | 0.819 | 0.859 | 0.963 | 0.712 | 0.672 | 0.935 | 0.695 | 0.712 |
| IA-LM | 0.84 | 0.862 | 0.759 | 0.804 | – | – | – | – | – | 0.787 | 0.788 | 0.893 | 0.88 | 0.839 | – | – | – | – | – |
| NCI-H520 | 0.932 | 0.969 | 1.06 | 0.785 | 0.692 | 0.62 | 0.642 | 0.845 | 0.557 | 0.699 | 0.388 | 0.59 | 0.54 | 0.416 | 0.21 | 0.226 | 0.26 | 0.242 | 0.233 |
| NCI-H1793 | 0.827 | 0.536 | 0.898 | 0.668 | – | 0.416 | 0.469 | 0.406 | 0.394 | – | – | – | – | – | – | 0.33 | 0.174 | 0.158 | 0.143 |
| NCI-H647 | 1.15 | 1.11 | 1.23 | 1 | 0.394 | 0.42 | 0.45 | 0.641 | 0.224 | 0.909 | 0.708 | 1.11 | 1.13 | 0.871 | 0.119 | 0.309 | 0.169 | 0.32 | 0.14 |
| HCC-44 | 0.792 | 0.817 | 0.865 | 0.892 | 1.03 | 1.05 | 1.16 | 1.04 | 0.807 | 0.762 | 0.855 | 0.901 | 0.953 | 0.8 | – | 0.716 | 1.14 | 0.965 | 1.06 |
| HCC-827 | 0.993 | 0.979 | 0.971 | 0.966 | 0.479 | 0.487 | 0.536 | 0.517 | 0.408 | 0.982 | 1.04 | 1.1 | 0.94 | 1.07 | 0.74 | 0.8 | 0.629 | 0.624 | 0.253 |

Source: the supplement of paper PMC10307832
